From patent US20110112133A1, “DIHYDRO PYRROLOQUINOLINE DERIVATIVES” (Takeda Pharmaceutical Company Limited, priority 2009, published 2011)

Legend:
[1] = target: T1, hNK2 receptor (Homo sapiens, UniProt P21452); test: Radioligand receptor binding inhibitory activity using membrane fraction of hNK2 receptor-expressing CHO cell ([125I]-NKA); conditions: for inhibition at 10 µM: test compound 10^−5 M; for inhibition at 10 µM / inhibition at 1 µM / inhibition at 0.1 µM / inhibition at 0.01 µM: read-out: hNK2 receptor binding inhibitory activity (inhibitory rate (%))
T1 construct: host or cells: CHO cells
T1 sequence (P21452 1-398): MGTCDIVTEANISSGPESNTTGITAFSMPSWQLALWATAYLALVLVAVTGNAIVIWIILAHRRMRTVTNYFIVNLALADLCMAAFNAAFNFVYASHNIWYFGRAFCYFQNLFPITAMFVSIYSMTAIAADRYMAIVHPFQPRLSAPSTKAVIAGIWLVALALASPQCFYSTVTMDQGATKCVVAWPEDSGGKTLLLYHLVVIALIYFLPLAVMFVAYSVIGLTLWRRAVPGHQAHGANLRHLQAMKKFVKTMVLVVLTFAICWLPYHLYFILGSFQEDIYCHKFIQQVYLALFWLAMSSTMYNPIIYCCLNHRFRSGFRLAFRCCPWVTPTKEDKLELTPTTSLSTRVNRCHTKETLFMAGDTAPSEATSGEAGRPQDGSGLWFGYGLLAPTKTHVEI
Method: Radioligand Receptor Binding Inhibitory Activity Using Membrane Fraction of hNK2 Receptor-Expressing CHO Cell
hNK2 receptor-expressing CHO cells (produced by EUROSCREEN) were cultured in a flask placed HAM-F12 medium containing 400 μg/mL Geneticin, 100 U/mL penicillin, 100 μg/mL streptomycin and 10% inactivated serum. The medium was removed and adhered cells were washed with PBS, and PBS containing 5 mM EDTA was added to detach the cells from the flask. The cells were recovered by centrifugation, suspended in suspending buffer A (15 mM Tris-HCl (pH 7.5), 12.5 mM MgCl2, 0.3 mM EDTA, 1 mM EGTA (Ethylene Glycol Bis(beta-aminoethylether)-N,N,N,N-tetraacetic Acid)), disrupted by POLYTRON homogenizer (manufactured by KINEMATICA) and centrifuged at 850×g for 10 min at 4° C. The supernatant was recovered and ultracentrifuged at 142000×g for 60 min at 4° C. The precipitated fraction was suspended in suspending buffer B (7.5 mM Tris-HCl (pH 7.5), 12.5 mM MgCl2, 0.3 mM EDTA, 1 mM EGTA, 250 mM sucrose), and cryopreserved (at −80° C.) as a membrane fraction preparation of hNK2 receptor-expressing CHO cell.
The radioligand receptor binding assay was performed in a 96 well microassay plate format with a final volume of 200 μL.
An assay buffer (50 μL, 50 mM Tris-HCl (pH 7.4), 0.02% bovine serum albumin, 2 μg/mL chymostatin, 40 μg/mL bacitracin, 40 μg/mL APMSF, 3 mM MnCl2) was added to a 96 well microassay plate. Thereto was added 50 μL of the above-mentioned cryopreserved membrane fraction preparation suspended in the assay buffer (20 μg/mL). An assay buffer (50 μL) containing 2% dimethyl sulfoxide was added to examine the total binding, 4 μM unlabeled NKA (produced by Peptide Institute, Inc.) solution (50 μL) diluted with an assay buffer containing 2% dimethyl sulfoxide was added to examine non-specific binding, and a test compound diluted with an assay buffer (50 μL, containing 2% dimethyl sulfoxide) was added. Furthermore, […] [^125I]-NKA (produced by NEN) solution (50 μL) was added to each well.
After reaction at room temperature for 30 min, using a cell harvester (manufactured by PerkinElmer), the reaction was stopped by rapid filtration on a unifilter plate (GF/C) (manufactured by PerkinElmer), which had been immersed in 0.3% aqueous polyethyleneimine solution for one day, and the cells were washed 10 times with 50 mM Tris-HCl (pH 7.4) buffer (250 μL) containing 0.02% bovine serum albumin. The GF/C filter plate was dried and 20 μL of MicroScinti-0 (manufactured by PerkinElmer) was added to each well and the radioactivity was measured by TopCount (manufactured by PerkinElmer).
Specific binding is shown by the value obtained by subtracting non-specific binding from the total binding. The binding inhibitory activity of the test compound is shown by the ratio of the value obtained by subtracting the measured value associated with the addition of the test compound from the total binding, to the value of the specific binding.

[2] = target: T1, hNK2 receptor; test: Antagonistic activity determined by intracellular calcium concentration using neurokinin A and hNK2 receptor-expressing CHO cell (FLIPR); format: cell-based; conditions: neurokinin A stimulation; for inhibition at 10 µM / inhibition at 1 µM / inhibition at 0.1 µM / inhibition at 0.01 µM: CHO, read-out: Antagonistic activity (inhibitory rate (%))
Method: Evaluation of Antagonistic Activity Determined by Intracellular Calcium Concentration Using Test Compound, Neurokinin A and hNK2 Receptor-Expressing CHO Cell
hNK2 receptor-expressing CHO cells were seeded on a 384 well plate at 7.5×10^3 cells/well and cultured for 24 hr. Then the medium was removed, 1× recording medium (30 μL, Calcium kit II-Fluo 4: DOJINDO LABORATORIES, Japan) containing prepared 2.5 μg/mL Fluo 4, 2.5 mM probenecid and 20 mM HEPES was added, and the cells were cultured in CO2 incubator (37° C., 5% CO2) for 1 hr. A test compound diluted with 1× recording medium containing 0.05% bovine serum albumin and 20 mM HEPES (10 μL, 0.6% dimethyl sulfoxide) was added. Thereafter, 3 nM neurokinin A solution (20 μL) was added, and changes in the intracellular calcium concentration were measured by FLIPR (Molecular Devices Corporation, Japan). The inhibitory rate of the test compound was calculated with a reaction using DMSO alone and free of the compound as […] and a reaction using 1 nM NKA as 0% inhibition.

Row | Compound | hNK2 receptor binding inhibitory activity (inhibitory rate (%)) ([1]; test compound 10^−6 M) [%] | hNK2 receptor binding inhibitory activity (inhibitory rate (%)) ([1]; test compound 10^−7 M) [%] | hNK2 receptor binding inhibitory activity (inhibitory rate (%)) ([1]; test compound 10^−8 M) [%] | Antagonistic activity (inhibitory rate (%)) ([2]; test compound 10^−5 M) [%] | Antagonistic activity (inhibitory rate (%)) ([2]; test compound 10^−6 M) [%] | Antagonistic activity (inhibitory rate (%)) ([2]; test compound 10^−7 M) [%] | Antagonistic activity (inhibitory rate (%)) ([2]; test compound 10^−8 M) [%] | inhibition at 10 µM ([2]; test compound 10^−5 M) [%] | inhibition at 1 µM ([2]; test compound 10^−6 M) [%] | inhibition at 0.1 µM ([2]; test compound 10^−7 M) [%] | inhibition at 0.01 µM ([2]; test compound 10^−8 M) [%] | inhibition at 10 µM [1] [%] | inhibition at 1 µM ([1]; test compound 10^−6 M) [%] | inhibition at 0.1 µM ([1]; test compound 10^−7 M) [%] | inhibition at 0.01 µM ([1]; test compound 10^−8 M) [%] | hNK2 receptor binding inhibitory activity (inhibitory rate (%)) ([1]; test compound 10^−6 M, hydrochloride) [%] | hNK2 receptor binding inhibitory activity (inhibitory rate (%)) ([1]; test compound 10^−8 M, hydrochloride) [%]
1 | Br.Cc1ccn(-c2ccc(C(=O)N[C@@H]3CCC(F)(F)C[C@@H]3C(=O)N3CCc4c(-c5ncc[nH]5)nc5ccccc5c43)cc2)n1 [Example 2, N-[(1R,2S)-4,4-difluoro-2-{[4-(1H-imidazol-2-yl)-2,3-dihydro-1H-pyrrolo[3,2-c]quinolin-1-yl]carbonyl}cyclohexyl]-4-(3-methyl-1H-pyrazol-1-yl)benzamide hydrobromide] | 100.7 | 99.7 | 99.6 | 88.8 | 102.2 | 102.8 | 100.4 |  |  |  |  |  |  |  |  |  | 
2 | Cc1ccn(-c2ccc(C(=O)N[C@@H]3CCC(F)(F)C[C@@H]3C(=O)N3CCc4c(-c5ncc[nH]5)nc5ccccc5c43)cc2)n1 [Example 1, N-[(1R,2S)-4,4-difluoro-2-{[4-(1H-imidazol-2-yl)-2,3-dihydro-1H-pyrrolo[3,2-c]quinolin-1-yl]carbonyl}cyclohexyl]-4-(3-methyl-1H-pyrazol-1-yl)benzamide] | 101.1 | 100.5 | 99.7 |  |  |  |  | 88.3 | 102 | 102 | 100 |  |  |  |  |  | 
3 | Cc1ccn(-c2ccc(C(=O)N[C@@H]3CCC(F)(F)C[C@@H]3C(=O)N3CCc4c(-c5nccn5COC(=O)C(C)(C)C)nc5ccccc5c43)cc2)n1 [Example 4, [2-(1-{[(1S,2R)-5,5-difluoro-2-({[4-(3-methyl-1H-pyrazol-1-yl)phenyl]carbonyl}amino)cyclohexyl]carbonyl)-2,3-dihydro-1H-pyrrolo[3,2-c]quinolin-4-yl)-1H-imidazol-1-yl]methyl 2,2-dimethylpropanoate] |  |  |  |  |  |  |  | 91 | 98.7 | 39.5 | -6.8 |  | 80.1 | 31.6 | -7.5 |  | 
4 | Cc1ccn(-c2ccc(C(=O)N[C@@H]3CCC(F)(F)C[C@@H]3C(=O)N3CCc4c(-c5ncc[nH]5)nc5ccccc5c43)cc2)n1.Cl [Example 3, N-[(1R,2S)-4,4-difluoro-2-{(4-(1H-imidazol-2-yl)-2,3-dihydro-1H-pyrrolo[3,2-c]quinolin-1-yl]carbonyl}cyclohexyl]-4-(3-methyl-1H-pyrazol-1-yl)benzamide hydrochloride] |  | 101.4 |  | 86.8 | 102.5 | 102.9 | 100.5 |  |  |  |  |  |  |  |  | 101.7 | 100.3

Other lines, results leading:

Row | hNK2 receptor binding inhibitory activity (inhibitory rate (%)) ([1]; test compound 10^−6 M) [%] | hNK2 receptor binding inhibitory activity (inhibitory rate (%)) ([1]; test compound 10^−7 M) [%] | hNK2 receptor binding inhibitory activity (inhibitory rate (%)) ([1]; test compound 10^−8 M) [%] | Antagonistic activity (inhibitory rate (%)) ([2]; test compound 10^−5 M) [%] | Antagonistic activity (inhibitory rate (%)) ([2]; test compound 10^−6 M) [%] | Antagonistic activity (inhibitory rate (%)) ([2]; test compound 10^−7 M) [%] | Antagonistic activity (inhibitory rate (%)) ([2]; test compound 10^−8 M) [%] | inhibition at 10 µM ([2]; test compound 10^−5 M) [%] | inhibition at 1 µM ([2]; test compound 10^−6 M) [%] | inhibition at 0.1 µM ([2]; test compound 10^−7 M) [%] | inhibition at 0.01 µM ([2]; test compound 10^−8 M) [%] | inhibition at 10 µM [1] [%] | inhibition at 1 µM ([1]; test compound 10^−6 M) [%] | inhibition at 0.1 µM ([1]; test compound 10^−7 M) [%] | inhibition at 0.01 µM ([1]; test compound 10^−8 M) [%] | hNK2 receptor binding inhibitory activity (inhibitory rate (%)) ([1]; test compound 10^−6 M, hydrochloride) [%] | hNK2 receptor binding inhibitory activity (inhibitory rate (%)) ([1]; test compound 10^−8 M, hydrochloride) [%] | Compound
5 |  |  |  |  |  |  |  | 84.1 | 96.7 | 100 | 81.9 | 99.1 | 101 | 99.9 | 93.8 |  |  | Cc1ccn(-c2ccc(C(=O)N[C@@H]3CCC(F)(F)C[C@@H]3C(=O)N3CCc4c(-c5ccccc5)nc5ccc(F)cc5c43)cc2)n1 [Example 9, N-{(1R,2S)-4,4-difluoro-2-[(8-fluoro-4-phenyl-2,3-dihydro-1H-pyrrolo[3,2-c]quinolin-1-yl)carbonyl]cyclohexyl}-4-(3-methyl-1H-pyrazol-1-yl)benzamide]
6 |  |  |  |  |  |  |  | 83.7 | 99.3 | 100 | 98.6 | 102 | 100 | 100 | 98.8 |  |  | Cc1ccn(-c2ccc(C(=O)N[C@@H]3CCC(F)(F)C[C@@H]3C(=O)N3CCc4c(-c5ccsc5)nc5ccccc5c43)cc2)n1 [Example 7, N-[(1R,2S)-4,4-difluoro-2-{(4-thiophen-3-yl-2,3-dihydro-1H-pyrrolo[3,2-c]quinolin-1-yl)carbonyl]cyclohexyl}-4-(3-methyl-1H-pyrazol-1-yl)benzamide]
7 | 100.8 | 99.8 | 96.6 |  |  |  |  | 87.1 | 100 | 102 | 100 |  |  |  |  |  |  | Cc1ccn(-c2ccc(C(=O)N[C@@H]3CCC(F)(F)C[C@@H]3C(=O)N3CCc4c(-c5ncc[nH]5)nc5ccc(F)cc5c43)cc2)n1 [Example 5, N-[(1R,2S)-4,4-difluoro-2-{[8-fluoro-4-(1H-imidazol-2-yl)-2,3-dihydro-1H-pyrrolo[3,2-c]quinolin-1-yl]carbonyl}cyclohexyl]-4-(3-methyl-1H-pyrazol-1-yl)benzamide]
